Experimental data reported in patent US20090005309A1, “SUBSTITUTED PIPERIDINES” (AUSPEX PHARMACEUTICALS, INC., priority 2007, published 2009).
Like-named read-outs stand apart in the source and are kept apart here.

What was measured:
[1] = target: CYP2C19 (Homo sapiens, UniProt P33261); assay: In vitro inhibition of human cytochrome P450 CYP2C19 (fluorometric, 3-cyano-7-ethoxycoumarin substrate)
Description: (§1) In Vitro Inhibition of Human Cytochrome P450 Enzymes
(§2) Solution A: NADPH-Regenerating System
To a glass tube on ice were added sequentially: Water (8 mL) in NADP+ (20 mg), glucose-6-phosphate (20 mg), magnesium chloride hexahydrate (13.3 mg) and glucose-6-phosphate dehydrogenase (60 units).
Solution A was transferred to a 96-well black plate (80 microliter per well), followed by various concentrations of a solution of paroxetine in 20% acetonitrile-water (20 microliter per well). The reaction was initiated by adding 100 microliter of solution B to each well of the 96-well plate. The plate was incubated for 30 minutes at 37° C. in the dark. The reaction was stopped by adding 75 microliter of stop buffer (4:1 acetonitrile-0.5 M Tris base) to each well, and the end point was measured in a fluorometer plate reader at λex=409 nm and λem=460 nm.

[2] = target: CYP2D6 (Homo sapiens, UniProt P10635); assay: In vitro inhibition of human cytochrome P450 CYP2D6 (fluorometric, 3-[2-(N,N diethyl-N-methylamino)ethyl]-7-methoxy-4-methylcoumarin substrate); type: in vitro ADME; settings: for IC50: 40 minutes at 37° C.; for times the amount of compound needed to inhibit CYP2D6 than non-isotopically enriched zamifenacin: ratio versus non-isotopically enriched zamifenacin (IC50 0.33 μM)
Description: as §1, §2
The plate was incubated for 40 minutes at 37° C. in the dark.

[3] = read-out: IC50 for inhibition of CYP2D6

Chain of CYP2D6 (P10635 whole entry): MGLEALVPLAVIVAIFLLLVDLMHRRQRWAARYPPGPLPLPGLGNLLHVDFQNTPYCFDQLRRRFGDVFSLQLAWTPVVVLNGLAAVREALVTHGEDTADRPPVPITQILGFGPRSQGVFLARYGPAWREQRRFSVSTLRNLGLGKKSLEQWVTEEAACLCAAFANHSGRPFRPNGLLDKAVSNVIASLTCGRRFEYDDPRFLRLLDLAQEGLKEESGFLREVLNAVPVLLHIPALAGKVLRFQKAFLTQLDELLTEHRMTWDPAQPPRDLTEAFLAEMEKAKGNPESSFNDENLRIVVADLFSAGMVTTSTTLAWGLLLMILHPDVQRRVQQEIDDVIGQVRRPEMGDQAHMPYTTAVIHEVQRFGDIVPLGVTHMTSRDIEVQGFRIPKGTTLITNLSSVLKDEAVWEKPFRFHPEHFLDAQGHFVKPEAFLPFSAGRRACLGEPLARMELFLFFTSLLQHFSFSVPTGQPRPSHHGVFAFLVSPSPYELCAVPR
Chain of CYP2C19 (P33261 whole entry): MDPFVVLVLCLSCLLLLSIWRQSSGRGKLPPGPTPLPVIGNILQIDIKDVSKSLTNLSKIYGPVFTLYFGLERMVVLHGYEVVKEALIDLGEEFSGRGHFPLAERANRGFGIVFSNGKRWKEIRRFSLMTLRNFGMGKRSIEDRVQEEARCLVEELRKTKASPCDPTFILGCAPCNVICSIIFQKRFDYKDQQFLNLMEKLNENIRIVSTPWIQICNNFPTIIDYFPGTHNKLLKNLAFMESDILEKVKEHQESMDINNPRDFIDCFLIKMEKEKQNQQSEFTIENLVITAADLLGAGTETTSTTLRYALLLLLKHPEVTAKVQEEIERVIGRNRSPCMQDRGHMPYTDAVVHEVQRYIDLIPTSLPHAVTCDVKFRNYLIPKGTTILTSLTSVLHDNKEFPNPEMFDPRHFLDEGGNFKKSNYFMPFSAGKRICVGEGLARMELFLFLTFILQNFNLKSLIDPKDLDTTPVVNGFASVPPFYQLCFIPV

IC50 [1]	IC50 [2, 3]	times the amount of compound needed to inhibit CYP2D6 than non-isotopically enriched zamifenacin [2]	IC50 ([2]; positive control, read-out: IC50 for inhibition of CYP2D6 (positive control))	Compound
3600 nM	330 nM			c1ccc(C(OC2CCCN(CCc3ccc4c(c3)OCO4)C2)c2ccccc2)cc1 (stereo not shown) [zamifenacin, 3-benzhydryloxy-1-(2-benzo[1,3]dioxol-5-yl-ethyl)-piperidine, reference compound]
5100 nM	400 nM	1.2 times		[2H]C1([2H])Oc2ccc(CCN3CCCC(OC(c4ccccc4)c4ccccc4)C3)cc2O1 (stereo not shown) [Example 3, d2-3-Benzhydryloxy-1-(2-benzo[1,3]dioxol-5-yl-ethyl)-piperidine]
4000 nM				[2H]C([2H])(c1ccc2c(c1)OCO2)C([2H])([2H])N1CCCC(OC(c2ccccc2)c2ccccc2)C1 (stereo not shown) [Example 2, d4-3-Benzhydryloxy-1-(2-benzo[1,3]dioxol-5-yl-ethyl)-piperidine]
			14.5 nM	Cc1nc2c([nH]1)c(=O)n(C)c(=O)n2Cc1ccco1 [Furafylline, reference compound]
5300 nM	420 nM	1.3 times		[2H]C1([2H])Oc2ccc(C([2H])([2H])C([2H])([2H])N3CCCC(OC(c4ccccc4)c4ccccc4)C3)cc2O1 (stereo not shown) [Example 4, d6-3-Benzhydryloxy-1-(2-benzo[1,3]dioxol-5-yl-ethyl)-piperidine]
